Laboratory results as given in US20250034169A1, “NOVEL PYRIMIDOPYRIDINE COMPOUND, PHARMACEUTICAL COMPOSITION THEREOF, AND USE THEREOF” (SUNSHINE LAKE PHARMA CO., LTD., priority 2021, published 2025).

Tests used:
KRAS G12D-GTP & cRAF = KRAS G12D-GTP & cRAF (Homo sapiens (Human), UniProt P01116, G12D); test: KRAS G12D/cRAF binding experiment (HTRF); details: competitive binding
intracellular pERK = test: Inhibitory effect on intracellular pERK, In-Cell Western, AGS cells; format: cell-based; details: Homo sapiens; AGS cells, 3 h incubation, In-Cell Western; read-out: Inhibitory effect on intracellular pERK, IC50
KRAS G12D-GTP & SOS1 = KRAS G12D-GTP & SOS1 (Homo sapiens (Human), UniProt P01116, G12D); test: KRAS G12D/SOS1 binding experiment (HTRF); details: competitive binding
Chain of KRAS G12D-GTP & SOS1 (P01116-2 other isoform, or with tags, fused parts or gaps G12D): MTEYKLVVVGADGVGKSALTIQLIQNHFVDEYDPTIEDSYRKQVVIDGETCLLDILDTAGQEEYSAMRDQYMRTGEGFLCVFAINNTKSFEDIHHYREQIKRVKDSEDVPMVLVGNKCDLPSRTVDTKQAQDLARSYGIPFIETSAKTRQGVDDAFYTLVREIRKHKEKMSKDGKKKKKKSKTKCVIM

[1] = Stability in mouse liver microsomes; format: in vitro ADME; details: mouse, pH 7.4
Method: (§1) Objective: To evaluate the stability of the compounds of the present invention in human and mouse liver microsomes by LC-MS/MS.
(§2) The ratio of the sample peak area to the internal standard peak area was obtained by LC/MS/MS, and the content of the compounds at 0 min was regarded as 100%, and the relative content of the compounds at each time point was calculated. The half-life of the compound was calculated by plotting the “relative content of the compound” against the “incubation time”, and the intrinsic clearance was calculated, in which the half-life and intrinsic clearance of the compound in human and mouse liver microsomes were determined in Table 3 and Table 4, respectively.

[2] = Stability in human liver microsomes; format: in vitro ADME; details: human, pH 7.4
Method: as §1, §2

Chain of KRAS G12D-GTP & cRAF (P01116-2 other isoform, or with tags, fused parts or gaps G12D): as above

| Structure (SMILES) | IC50 (KRAS G12D-GTP & cRAF) [µM] | IC50 (KRAS G12D-GTP & SOS1) [µM] | also measured |
| --- | --- | --- | --- |
| C#Cc1c(F)ccc2cc(O)cc(-c3nc(OCCC(F)(F)F)c4c(N5CC6CCC(C5)N6)nc(OC[C@@]56CCCN5C[C@H](F)C6)nc4c3F)c12 [Compound 9] | 0.0088 | 0.0126 | IC50 (intracellular pERK): 0.0006 µM |
| C#Cc1c(F)ccc2cc(O)cc(-c3nc(OCCOC)c4c(N5CC6CCC(C5)N6)nc(OC[C@@]56CCCN5C[C@H](F)C6)nc4c3F)c12 [Compound 10] | 0.0087 | 0.0139 | – |
| [2H]C([2H])([2H])c1nc(-c2cc(O)cc3ccc(F)c(C#C)c23)c(F)c2nc(OC[C@@]34CCCN3C[C@H](F)C4)nc(N3CC4CCC(C3)N4)c12 [Compound 11] | 0.0092 | 0.0198 | – |
| C#Cc1c(F)ccc2cc(O)cc(-c3nc(COC)c4c(N5CC6CCC(C5)N6)nc(OC[C@@]56CCCN5C[C@H](F)C6)nc4c3F)c12 [Compound 12] | 0.0097 | 0.0103 | – |
| C#Cc1c(F)ccc2cc(O)cc(-c3nc(C(=O)OCC)c4c(N5CC6CCC(C5)N6)nc(OC[C@@]56CCCN5C[C@H](F)C6)nc4c3F)c12 [Compound 13] | 0.0051 | 0.0113 | – |
| C#Cc1c(F)ccc2cc(O)cc(-c3nc(COC)c4c(N5CC6CCC(C5)N6)nc(OC[C@@]56CCCN5C[C@H](F)C6)nc4c3F)c12 [Compound 26] | – | – | IC50 (intracellular pERK): 0.0004 µM |
| C#Cc1c(F)ccc2cc(O)cc(-c3nc(C#CC4CCCC4)c4c(N5CC6CCC(C5)N6)nc(OC[C@@]56CCCN5C[C@H](F)C6)nc4c3F)c12 [Compound 28] | 0.0111 | 0.0115 | – |
| C#Cc1c(F)ccc2cc(O)cc(-c3nc(C#CCCC#N)c4c(N5CC6CCC(C5)N6)nc(OC[C@@]56CCCN5C[C@H](F)C6)nc4c3F)c12 [Compound 31] | 0.0246 | 0.0346 | – |
| C#Cc1c(F)ccc2cc(O)cc(-c3nc(C#C)c4c(N5CC6CC(C5)N6)nc(OC[C@@]56CCCN5C[C@H](F)C6)nc4c3F)c12 [Compound 41] | 0.022 | 0.0314 | – |
| C#Cc1c(F)ccc2cc(O)cc(-c3nc(C#C)c4c(N5CCN[C@@H](C)C5)nc(OC[C@@]56CCCN5C[C@H](F)C6)nc4c3F)c12 [Compound 43] | 0.0163 | 0.0241 | – |
| C#Cc1c(F)ccc2cc(O)cc(-c3nc(C#C)c4c(N5C[C@@H]6C[C@H]5CN6)nc(OC[C@@]56CCCN5C[C@H](F)C6)nc4c3F)c12 [Compound 44] | 0.0152 | 0.0296 | – |
| C#Cc1c(F)ccc2cc(O)cc(-c3nc(C#C)c4c(N5CC6CCC(C5)N6)nc(OC[C@H]5CCCN5C)nc4c3F)c12 [Compound 50] | 0.0191 | 0.0362 | – |
| C#Cc1c(F)ccc2cc(O)cc(-c3nc(C#C)c4c(N5CC6CCC(C5)N6)nc(OCC56CCCN5CCC6)nc4c3F)c12 [Compound 54] | – | – | CLHep ([1]; 1 μM): 31.9 mL/min/kg; CLin vivo ([1]; 1 μM): 23.5 mL/min/kg; ER ([1]; 1 μM): 0.26; half-life at 1 μM ([1]; microsomes): 2.86 h; microsomal CLint at 1 μM ([1]; microsomes): 8.1 µL/min/mg; CLHep ([2]; 1 μM): 5.6 mL/min/kg; ER ([2]; 1 μM): 0.21; half-life at 1 μM ([2]; microsomes): 5.2 h; microsomal CLint at 1 μM ([2]; microsomes): 4.4 µL/min/mg |
| C#Cc1c(F)ccc2cc(O)cc(-c3nc(C#C)c4c(N5CC6CCC(C5)N6)nc(OCCC(F)(F)F)nc4c3F)c12 [Compound 55] | 0.0098 | 0.0148 | – |
| C#Cc1c(F)ccc2cc(O)cc(-c3nc(C#C)c4c(N5CC6CCC(C5)N6)nc(OCC5CCCC5)nc4c3F)c12 [Compound 56] | 0.0185 | 0.0157 | – |
| C#Cc1nc(-c2cc(O)cc3ccccc23)c(F)c2nc(OC[C@@]34CCCN3C[C@H](F)C4)nc(N3CC4CCC(C3)N4)c12 [Compound 66] | 0.0059 | 0.0117 | – |
| C#Cc1nc(-c2cc(O)cc(Cl)c2C2CC2)c(F)c2nc(OC[C@@]34CCCN3C[C@H](F)C4)nc(N3CC4CCC(C3)N4)c12 [Compound 78] | 0.0075 | 0.0173 | – |
| C#Cc1c(F)ccc2cccc(-c3nc(C#C)c4c(N5CC6CCC(C5)N6)nc(OC[C@@]56CCCN5C[C@H](F)C6)nc4c3F)c12 [Compound 84] | 0.0208 | 0.0296 | – |
| C#CCOc1nc(-c2cc(O)cc3ccc(F)c(C#C)c23)c(F)c2nc(OC[C@@]34CCCN3C[C@H](F)C4)nc(N3CC4CCC(C3)N4)c12 [Compound 91] | – | – | IC50 (intracellular pERK): 0.0003 µM |
